Measured values published in BindingDB's records for doi:10.1016/j.jmb.2005.09.095 (Georgia State University, 2005).
Starred links: 1 amine or outer side, 2 acyl side, 3 side chain; linkers in the order of their positions; H or OH if unused. Non-standard residues stand in square brackets, D forms with d. Residues, ends and D or L forms follow the SMILES beside them. Groups on a side chain read outwards from the residue. N(2S-amino-4-Me-pentyl)Phe = CC(C)C[C@@H](CN([C@@H](Cc1ccccc1)C(=O)[*:2])[*:1])N[*:3]; Nle = CCCC[C@H](N)C(=O)O

Key:
Assay in all cases: Protease Inhibition Assay
Conditions in all cases: pH 5; 22 °C
[1] = target: T1, Dimer of Gag-Pol polyprotein [501-599,Q508K,L534I,L564I,C568A,C596A,I551V] (Human immunodeficiency virus 1, UniProt P03367, C568A/C596A/I551V/L534I/L564I/Q508K)
T1 construct: 501-599
From the text: (§1) The Ki values were obtained from the IC50 values estimated from an inhibitor dose-response curve with the spectroscopic assay and the chromogenic substrate.

[2] = target: T2, Dimer of Gag-Pol polyprotein [501-599,Q508K,L534I,L564I,C568A,C596A,G574S] (Human immunodeficiency virus 1, UniProt P03367, C568A/C596A/G574S/L534I/L564I/Q508K)
T2 construct: 501-599
From the text: as §1

[3] = target: T3, Dimer of Gag-Pol polyprotein [501-599,Q508K,L534I,L564I,C568A,C596A,L525I] (Human immunodeficiency virus 1, UniProt P03367, C568A/C596A/L525I/L534I/L564I/Q508K)
T3 construct: 501-599
From the text: as §1

[4] = target: T4, Dimer of Gag-Pol polyprotein [501-599,Q508K,L534I,L564I,C568A,C596A] (Human immunodeficiency virus 1, UniProt P03367, C568A/C596A/L534I/L564I/Q508K)
T4 construct: 501-599
From the text: as §1

Compound: CCCC[C@H](NC(=O)[C@H](C)NC(=O)[C@H](CCC(=O)O)NC(=O)[C@H](Cc1ccccc1)NC[C@H](CC(C)C)NC(=O)[C@@H](NC(=O)[C@@H](N)CCCNC(=N)N)C(C)C)C(N)=O [N-1270] (H-[N(2S-amino-4-Me-pentyl)Phe]([Val-Arg])EA[Nle]-NH2)
- Ki [1]: 230 nM
- Ki [2]: 330 nM
- Ki [3]: 3.5 nM
- Ki [4]: 75 nM
